Data as given in a melting point compilation (Tetko et al.; mined from patent text by program, amines drawn as free bases though some values may be those of a salt).

Row | melting point [°C] | Structure (SMILES)
1 | > 200 | Cc1cc(C)c(C2C(=O)OC3(CCN(N(C)C)CC3)C2=O)c(C)c1 (stereo not drawn)
2 | 127 to 129 | Oc1ccc(CNCc2cccc(C(F)(F)F)c2)c2cccnc12
3 | 275 to 276 | O=C1Nc2ccc(Cl)cc2C2(c3ccccc3)NCCCN12 (stereo not drawn)
4 | 190 to 192 | CCOC(=O)c1c2ccc(CC(=O)NOCCO)ccc-2c(C(=O)OCC)c1N
5 | 105 | COc1cc(CCCN(C)Cc2ccc(OC)c(OC)c2)ccc1NC(=O)c1cccc2c(=O)c3cccc(OC)c3[nH]c12
6 | 192 | CNc1ncn(-c2ccccc2C)c(=O)n1
7 | 263 to 265 | Cc1ccc(N2C(=O)C(O)=C(C(=O)c3ccc(C(C)C)cc3)C2c2ccc(OC(F)F)cc2)nn1 (stereo not drawn)
8 | 45 to 50 | CCOC(=O)CCC1CCCC2CCC(=O)NC21 (stereo not drawn)
9 | 80 to 81 | CCOC(=NS(=O)(=O)c1ccccc1OC(F)F)OCC
10 | 126 to 130 | O=Cc1ccc(OCc2cn3c(Cl)cccc3n2)cc1
11 | 230 | COc1ccc2[nH]c3c(c2c1[N+](=O)[O-])CCC3O (stereo not drawn)
12 | 71 to 72 | CCCCC1COC(=S)N1 (stereo not drawn)
13 | 27 to 28 | C=CCOc1ccc(OCCBr)cc1
14 | 134 to 138 | Cc1[nH]c(Cc2ccccc2)nc1CO
15 | 123 to 126 | O=C(O)C1(c2ccc3c(c2)CCCC3)CCC1
16 | 110 to 112 | Nc1c(-c2ccccc2)sc2ccccc12
17 | 92 to 94 | COc1cc(C)ccc1S(=O)(=O)O
18 | 252 to 255 | Oc1ccc2c(c1)COc1c-2cc2ccc(O)cc2c1-c1cc(Cl)cc(Cl)c1
19 | 71 | O=[N+]([O-])c1cc(S(=O)(=O)Oc2ccccc2)ccc1Cl
20 | 183 to 184 | Cc1ccccc1N1CCN(CC(O)COc2cccc3c2CCCC3=O)CC1 (stereo not drawn)
21 | 51 to 53 | CCCCC[C@H](CC(=O)OC(C)(C)C)C(=O)N1C(=O)OC[C@@H]1C(C)C
22 | 86 to 88 | CNC(=O)OCc1c(COC(=O)NC)c2n(c1C)-c1ccccc1C2
23 | 217 to 219 | NNC(=O)c1cnn(-c2ccc(N(CCO)CCO)nn2)c1N
24 | 159 to 160 | C[C@H]1C[C@@H](NC(=O)C(F)(F)F)CC(O)O1 (stereo partly drawn)

Row | melting point [°C] | Structure (SMILES)
25 | 132 to 136 | CCCCOC(=O)COc1ccc(C(=O)Nc2cccc(Cl)c2Cl)cc1
26 | 201 to 202 | O=C(O)C(=NO)C(c1ccc(OCc2ccc3ccc(Cl)cc3n2)cc1)c1ccc(OCc2ccc3ccc(Cl)cc3n2)cc1
27 | 109 | C[C@@H](S[C@H]1CO[C@H](c2ccc(C(=O)Nc3ccc(C#N)c4ccccc34)cc2)OC1)[C@](O)(Cn1cncn1)c1ccc(F)cc1F
28 | 55.5 to 58.5 | O=C(COCc1ccccc1)Nc1ccc(OC(=O)COCc2ccccc2)cc1
29 | 102 to 104 | O=C1NC(=O)C(Cc2ccc(OCCON=Cc3ccc(-c4ccccc4)nc3)cc2)S1 (stereo not drawn)
30 | 240 to 242 | O=c1c(-c2ccccc2O)coc2c(O)c(O)ccc12
31 | 180 to 189 | CSc1ccc2c(c1)C(O)(C1CCN(C)CC1)c1ccc(F)cc1S2 (stereo not drawn)
32 | 192 to 193 | CSCCC(=O)NCc1cccc(-c2nc(=O)c3ccccc3s2)n1
33 | 196 to 205 | COc1ccccc1NC(=O)Nc1nc(NCCC(=O)O)nc(Nc2ccccc2-c2ccccc2)n1
34 | 225 | O=C(O)c1cc(C(F)(F)F)cc(Cl)c1-n1cnc(C(F)(F)F)cc1=O
35 | 94 to 97 | N#Cc1cn(CO)cc1-c1ccccc1Cl
36 | 140 to 142 | c1ccc(-c2nn3c(c2-c2cccc4nsnc24)CCC3)nc1
37 | 315 to 316 | O=C(O)c1cn(C2CC2)c2c(F)c(N3CC(n4ccnn4)C3)c(F)cc2c1=O
38 | > 300 | Cn1c2cc(Cl)ncc2c(=O)n2nccc12
39 | 176 to 177 | Cc1ccc(N2CCN(Cc3n[nH]c4c(F)cccc34)CC2)cc1
40 | 72 to 74 | COc1ccc(CSCC(C(=O)O)C(F)(F)F)cc1 (stereo not drawn)
41 | 115 to 117 | CC(=O)c1cc(F)ccc1Oc1nc2ccc(Br)cc2cc1Cc1ccccc1
42 | 126 to 127 | CNC(=O)OC1Oc2ccc(OS(C)(=O)=O)cc2C1(C)C (stereo not drawn)
43 | 272 to 274 | O=C1OCc2c1nc1ccc3c(c1c2-c1ccc2c(c1)OCO2)OCO3
44 | 182 to 184 | COc1ccc(-c2cc3c(s2)c(=O)c(SC)cn3C)cc1
45 | 112 | CNC(=O)C(C)Oc1ccc(O)cc1 (stereo not drawn)
46 | 199 to 202 | COc1cc(C)nc(NC(=O)NS(=O)(=O)c2ccccc2-c2ccccc2)n1
47 | 158 to 160 | O=c1cc(NCCCN2CCN(c3cccc4c3OCCO4)CC2)cn[nH]1
48 | 124 | CCN(CC)CCNc1ccc(N2CCOC2=O)cc1[N+](=O)[O-]

Row | melting point [°C] | Structure (SMILES)
49 | 232 to 234 | Cc1cc(C(=O)N2Cc3cccn3Cc3ccccc32)ccc1N
50 | 80 to 82 | CC(=O)OCCC1Cc2c(C)c(OCc3ccccc3)c(C)c(C)c2O1 (racemic)
51 | 96 to 98 | COc1ccc(COCC(O)Cn2ccnc2)cc1 (stereo not drawn)
52 | 225 to 227 | COc1cc(Nc2c(C#N)cnc3cc(N4CCC(N5CCCC5)CC4)c(OC)cc23)c(Cl)cc1Cl
53 | 300 to 305 | COc1ccccc1-c1ccc2cnc(Nc3cc4c(cc3F)CCC(=O)N4)nn12
54 | 152 to 155 | COC(=O)CC1Cc2ccc(OC)cc2NC1=O (stereo not drawn)
55 | 154 to 156 | NCC1(O)C2CC3CC(C2)CC1C3 (stereo not drawn)
56 | 101 to 104 | CCOC(=O)COc1cc(-n2nc(C)c(Cl)c2C)c(F)cc1Cl
57 | 205 | O=C(O)c1ccc(-c2nc(NCc3ccc4c(c3)OCO4)c3c4c(oc3n2)CCCC4)cc1
58 | 157 to 159 | COC(=O)c1ccc2oc(-c3ccc(OC)cc3)cc2c1
59 | 190 to 193 | COc1cc2c(cc1F)C(=Cc1ccc(S(C)=O)cc1)C(C)=C2CC(=O)O (stereo not drawn)
60 | 93 to 94 | C=CCNC(=O)C1CCc2cc(C3CCCCC3)ccc2O1 (stereo not drawn)
61 | 234 | Cn1nc(-c2cnc(N)nc2-c2ccco2)ccc1=O
62 | 85 to 90 | O=C(O)C1C2C=CC(C2)C1C(F)(F)F (stereo not drawn)
63 | 237 to 238 | N#Cc1ccc2c3c(cc([N+](=O)[O-])c2c1)NCC3CCl (stereo not drawn)
64 | 155 to 157 | Cc1c(C(=O)c2ccccc2Cl)c(NC(=O)CI)cn1C
65 | 281 to 282 | COc1cc(Nc2c(C#N)cnc3cc(-c4cc5ccccc5o4)sc23)c(Cl)cc1Cl
66 | 69.5 to 70 | c1ccc(COCC2c3ccccc3-c3ccccc32)cc1
67 | 104 | CON=C(c1ccccc1O)n1ccnc1
68 | > 395 | O=C(CCc1ccccc1)Oc1n[nH]c(=O)c2nc3cc(Cl)cc(Cl)c3c(O)c12
69 | 157 to 160 | Cc1cc(C(O)(c2ccc(Cl)cc2)C(F)(F)F)ccc1N (stereo not drawn)
70 | 97 | COc1cc(C(=O)N[C@@H]2c3cc(OC(F)(F)F)ccc3OC(C)(C)[C@H]2O)c([N+](=O)[O-])cc1OC
71 | 159 | CC(C)(C)OC(=O)c1ccccc1NC(=O)CN1C(=O)c2ccccc2C1=O
72 | 91 to 92 | O=C(NCCCOc1ccccn1)c1cccs1

Row | melting point [°C] | Structure (SMILES)
73 | 36 to 37 | FC(F)(F)c1nnc(SCc2ccccc2Cl)s1
74 | 91 to 93 | Cn1nc(-c2ccc(OC(F)(F)F)cc2)cc1CO
75 | 113 to 115 | COc1cc(CO)ccc1OCc1nc(-c2cccc(C#N)c2)oc1C
76 | 125 to 127 | CC(O)Cc1cc2c(cc1C(=NNc1ncccn1)c1ccc([N+](=O)[O-])cc1)OCO2 (stereo not drawn)
77 | 181 to 183 | COc1cccc(NC(=O)N[C@H]2C[C@H](C(=O)O)Nc3cc(Cl)cc(Cl)c32)c1 (relative stereo)
78 | 77 to 79 | COC1OC(=O)c2c(O)cccc21 (stereo not drawn)
79 | 150 | Cc1nc2n(c(=O)c1CCO)CCCN2Cc1ccccc1
80 | 162 to 163 | NC(=O)/C=C1/c2cc(F)ccc2CC1Br (stereo not drawn)
81 | 160 | CC(C)(C)NS(=O)(=O)c1ccc(C(=O)c2ccc(F)cc2)cc1
82 | 132 | CNc1c(CC(C)O)cc([N+](=O)[O-])cc1[N+](=O)[O-] (stereo not drawn)
83 | 91 to 92 | CO/C=C(/C(=O)OC)c1ccccc1COc1cccc(Cl)n1
84 | 189 to 190 | CCn1cc(S(=O)(=O)NC(=O)c2cn3cc(C(F)(F)F)cc(Cl)c3n2)c(C)n1
85 | 153 to 154 | O=[N+]([O-])c1ccc(Sc2cccc3cnccc23)cc1NCc1ccccc1
86 | 105 to 107 | COC(=O)[C@@H]1C/C=C/COc2ccc(cc2)C[C@H](NC(=O)OC(C)(C)C)C(=O)N[C@@H](C(C)C)C(=O)N1
87 | 158 to 160 | CC(C)CNC(=O)c1ccc(-c2ccc3nnn(Cc4ccc5ncccc5c4)c3n2)cc1F
88 | 123 to 126 | OCc1cc2cc(Cl)cc(Br)c2o1
89 | 118 to 119 | C/C(=C\Cn1oc(=O)[nH]c1=O)c1cccc(OCc2nc(-c3ccccc3)oc2C)c1
90 | 94 to 96 | COc1ccccc1C(=O)Nc1ccc(Cl)c(C(=O)OC(C)C)c1
91 | 116 to 118 | CS(=O)(=O)c1ccc(C2=C(c3ccc(F)cc3)C(=O)C2(Cl)Cl)cc1
92 | 180 to 182 | CCOC(=O)c1cc2c(Cl)c(F)ccc2[nH]1
93 | 164 | CCc1cn2ccccc2c1S(=O)(=O)c1ccc(OS(=O)(=O)c2ccc(C)cc2)c(C)c1
94 | 146 to 152 | O=C1CC2(CCN(Cc3ccccc3)CC2)C(=O)N1OCc1ccccc1
95 | 86 | CC(C)(C)c1cc(SCCSCC(=O)O)cc(C(C)(C)C)c1O

Row | Structure (SMILES) | melting point [°C]
96 | CN1C(=O)C(NC(=O)Nc2ccccc2[N+](=O)[O-])N=C(c2ccccc2)c2ccccc21 (stereo not drawn) | 260 to 261
97 | NC(=O)C1N=C(c2ccccc2)c2cc(Cl)ccc2NC1=O (stereo not drawn) | 255 to 256
98 | COc1cc2c(CCN)c[nH]c2cc1Cl | 150
99 | O=[N+]([O-])N=C1NCCCN1Cc1ccc(Cl)nc1 | 113 to 117
100 | CCOC(=O)CNC(=O)CCl | 60 to 62
101 | CCC1CC2C3CCC4=CC(=O)CCC4C3CCC2(C)C1OC(=O)CCl (stereo not drawn) | 135 to 136
102 | C=C(C)Cn1nc(C(=O)c2cccc(O)c2)c2ccccc21 | 75 to 78
103 | CN1Cc2cncn2-c2ccccc2C1=O | 212 to 213
